Assay results reported in ChEMBL document CHEMBL1139800, “Design, synthesis and antitubercular activity of diarylmethylnaphthol derivatives” (Bioorg Med Chem Lett, 2007).
Values after ≈ are worked out from the molar mass of the structure shown. Active and inactive are the calls of the source. The rule behind the calls is not given here.

What was measured:
[1] = test system: Mycobacterium tuberculosis; test: Antitubercular activity against Mycobacterium tuberculosis H37Rv by MABA assay; type: functional
[2] = test system: Mycobacterium tuberculosis; test: Antitubercular activity against Mycobacterium tuberculosis H37Rv by Agar dilution method; type: functional
Vero = test: Cytotoxicity against Vero cells after 3 days; type: cell-based; details: chlorocebus sabaeus, 72 h
[3] = test system: Mycobacterium tuberculosis; test: Antitubercular activity against Mycobacterium tuberculosis H37Rv at 12.5 ug/mL by MABA assay; type: functional, organism-based

Row | Structure (SMILES) | MIC [1] [µg/mL] | MIC [2] [µg/mL] | Activity (Vero) | Activity [3]
1 | CCN(CC)CCOc1ccc2ccccc2c1C(c1ccccc1)c1ccc(Cl)cc1 (stereo unspecified) | 3.12 (≈ 7.03 µM) | 6.25 (≈ 14.1 µM) | – | –
2 | Fc1ccc(C(c2ccccc2)c2c(OCCN3CCCCC3)ccc3ccccc23)cc1 (stereo unspecified) | 6.25 (≈ 14.2 µM) | 3.12 (≈ 7.1 µM) | Toxic | –
3 | CN(C)CCOc1ccc(C(c2ccccc2)c2ccccc2)c2ccccc12 | 12.5 (≈ 32.8 µM) | 6.25 (≈ 16.4 µM) | – | –
4 | CN(C)CCOc1ccc2ccccc2c1C(c1ccccc1)c1ccc(Cl)cc1 (stereo unspecified) | 3.12 (≈ 7.5 µM) | 6.25 (≈ 15 µM) | – | –
5 | CN(C)CCOc1ccc(C(c2ccccc2)c2ccc(F)cc2)c2ccccc12 (stereo unspecified) | – | > 12.5 | – | inactive
6 | Fc1ccc(C(c2ccccc2)c2c(OCCN3CCCCCC3)ccc3ccccc23)cc1 (stereo unspecified) | 6.25 (≈ 13.8 µM) | 12.5 (≈ 27.6 µM) | – | –
7 | Fc1ccc(C(c2ccccc2)c2ccc(OCCN3CCCCC3)c3ccccc23)cc1 (stereo unspecified) | 12.5 (≈ 28.4 µM) | 12.5 (≈ 28.4 µM) | – | –
8 | Clc1ccc(C(c2ccccc2)c2ccc(OCCN3CCCCCC3)c3ccccc23)cc1 (stereo unspecified) | – | > 12.5 | – | inactive
9 | CCN(CC)CCOc1ccc(C(c2ccccc2)c2ccc(Cl)cc2)c2ccccc12 (stereo unspecified) | 12.5 (≈ 28.2 µM) | 12.5 (≈ 28.2 µM) | – | –
10 | NNC(=O)c1ccncc1 [ISONIAZID] | 0.025 (≈ 0.182 µM) | 0.025 (≈ 0.182 µM) | – | –
11 | Clc1ccc(C(c2ccccc2)c2ccc(OCCN3CCCC3)c3ccccc23)cc1 (stereo unspecified) | – | 12.5 (≈ 28.3 µM) | – | inactive
12 | CN(C)CCOc1ccc2ccccc2c1C(c1ccccc1)c1ccccc1 | 6.25 (≈ 16.4 µM) | 3.12 (≈ 8.18 µM) | Toxic | –
13 | CCN(CC)CCOc1ccc(C(c2ccccc2)c2ccccc2)c2ccccc12 | 6.25 (≈ 15.3 µM) | 12.5 (≈ 30.5 µM) | – | –
14 | c1ccc(C(c2ccccc2)c2c(OCCN3CCCCCC3)ccc3ccccc23)cc1 | 6.25 (≈ 14.3 µM) | 3.12 (≈ 7.16 µM) | Toxic | –
15 | c1ccc(C(c2ccccc2)c2ccc(OCCN3CCCCCC3)c3ccccc23)cc1 | 12.5 (≈ 28.7 µM) | 12.5 (≈ 28.7 µM) | – | –
16 | CCN(CC)CCOc1ccc2ccccc2c1C(c1ccccc1)c1ccccc1 | 6.25 (≈ 15.3 µM) | 3.12 (≈ 7.62 µM) | Toxic | –

Row | Structure (SMILES) | MIC [1] [µg/mL] | MIC [2] [µg/mL] | Activity (Vero) | Activity [3]
17 | CN(C)CCOc1ccc2ccccc2c1C(c1ccccc1)c1ccc(F)cc1 (stereo unspecified) | 3.12 (≈ 7.81 µM) | 6.25 (≈ 15.6 µM) | – | –
18 | Clc1ccc(C(c2ccccc2)c2c(OCCN3CCCC3)ccc3ccccc23)cc1 (stereo unspecified) | 3.12 (≈ 7.06 µM) | 6.25 (≈ 14.1 µM) | – | –
19 | c1ccc(C(c2ccccc2)c2ccc(OCCN3CCCC3)c3ccccc23)cc1 | 6.25 (≈ 15.3 µM) | 12.5 (≈ 30.7 µM) | – | –
20 | Clc1ccc(C(c2ccccc2)c2c(OCCN3CCCCCC3)ccc3ccccc23)cc1 (stereo unspecified) | 3.12 (≈ 6.64 µM) | 6.25 (≈ 13.3 µM) | – | –
21 | Fc1ccc(C(c2ccccc2)c2c(OCCN3CCCC3)ccc3ccccc23)cc1 (stereo unspecified) | 3.12 (≈ 7.33 µM) | 6.25 (≈ 14.7 µM) | – | –
22 | CCN(CC)CCOc1ccc2ccccc2c1C(c1ccccc1)c1ccc(F)cc1 (stereo unspecified) | 6.25 (≈ 14.6 µM) | 3.12 (≈ 7.3 µM) | Toxic | –
23 | Clc1ccc(C(c2ccccc2)c2ccc(OCCN3CCCCC3)c3ccccc23)cc1 (stereo unspecified) | – | 12.5 (≈ 27.4 µM) | – | inactive
24 | c1ccc(C(c2ccccc2)c2c(OCCN3CCCCC3)ccc3ccccc23)cc1 | 6.25 (≈ 14.8 µM) | 3.12 (≈ 7.4 µM) | Toxic | –
25 | c1ccc(C(c2ccccc2)c2ccc(OCCN3CCCCC3)c3ccccc23)cc1 | 12.5 (≈ 29.7 µM) | > 12.5 | – | –
26 | CCN(CC)CCOc1ccc(C(c2ccccc2)c2ccc(F)cc2)c2ccccc12 (stereo unspecified) | – | > 12.5 | – | inactive
27 | CN(C)CCOc1ccc(C(c2ccccc2)c2ccc(Cl)cc2)c2ccccc12 (stereo unspecified) | – | > 12.5 | – | inactive
28 | Clc1ccc(C(c2ccccc2)c2c(OCCN3CCCCC3)ccc3ccccc23)cc1 (stereo unspecified) | 3.12 (≈ 6.84 µM) | 6.25 (≈ 13.7 µM) | – | –
29 | CO[C@H]1/C=C/O[C@@]2(C)Oc3c(C)c(O)c4c(O)c(c(/C=N/N5CCN(C)CC5)c(O)c4c3C2=O)NC(=O)/C(C)=C\C=C\[C@H](C)[C@H](O)[C@@H](C)[C@@H](O)[C@@H](C)[C@H](OC(C)=O)[C@@H]1C [RIFAMPIN] | 0.2 (≈ 0.243 µM) | 0.2 (≈ 0.243 µM) | – | –
30 | Fc1ccc(C(c2ccccc2)c2ccc(OCCN3CCCCCC3)c3ccccc23)cc1 (stereo unspecified) | 12.5 (≈ 27.6 µM) | > 12.5 | – | –
31 | c1ccc(C(c2ccccc2)c2c(OCCN3CCCC3)ccc3ccccc23)cc1 | 6.25 (≈ 15.3 µM) | 3.12 (≈ 7.66 µM) | Toxic | –
32 | Fc1ccc(C(c2ccccc2)c2ccc(OCCN3CCCC3)c3ccccc23)cc1 (stereo unspecified) | 6.25 (≈ 14.7 µM) | 12.5 (≈ 29.4 µM) | – | –
